The values that follow come from patent US4675337A, “Non-mutagenic 1,2-disubstituted 4-nitro-imidazoles useful as antiprotozoal agents” (priority 1986, dated 1987).

Values after ≈ are worked out from the molar mass of the structure shown. Read-outs that look alike come from different tables or passages of the source.

The test system of data set [1] is T. foetus. Nature of the data set: Trichomonal activity in vitro. Format: cell-based. The conditions noted are these: Tritrichomonas foetus, Table I, read-out: ED50 (T. foetus) in vitro.
Data set [2] has as its system T. foetus. Put plainly: Trichomonal activity in vivo: survival of mice infected i.p. with T. foetus. The conditions noted are these: Tritrichomonas foetus, po, 336 h. Here is the method:
Mice were infected through intraperitoneal (I.P.) injection of 1.4×10^7 T. foetus. Each compound disclosed in Table I below was dissolved in an aqueous vehicle, dosed to groups of mice (consisting of five) by gavage. The mice were dosed once per day for four consecutive days with doses ranging from 1-50 mg/kg. The effective dose of the compound, ED50, was calculated from the number of animals surviving a two week period.

The subject of data set [3] is Rat hepatocytes. Nature of the data set: Single strand DNA breaks in rat hepatocytes (elution). Format: cell-based. The conditions noted are these: for Relative Elution Slope: relative to control 1.00, ≥3.0 significant. An excerpt:
*Measure of the extent of DNA strand cleavage. Only relative elution
slopes ≥3.0 are considered significant. Therefore, […]

A short description of data set [4]: Cytotoxicity in rat hepatocytes. Conditions: relative to control cells. Format: cell-based. An excerpt: **Relative viability is the number of hepatocytes surviving exposure to
the nitroimidazoles relative to the control cells.

Data set [5] has as its system Ames Salmonella TA100. Conditions: for In vivo Safety Index (rel to flagyl): relative increase in safety (1/mutagenicity) at the ED50 dose, relative to flagyl. An excerpt:
This test involves the addition to a fermentation medium in which is growing a particular organism identified as Ames Salmonella TA100, and measuring the number of mutant organisms formed.

Where [6] appears, read: Table I, gavage once per day for four consecutive days, survival over two weeks, read-out: ED50 (T. foetus) in vivo.
Where [7] appears, read: Table II, read-out: T. foetus In Vivo (ED50).
Where [8] appears, read: Table II, relative to ronidazole.
Where [9] appears, read: Table III, read-out: T. foetus (ED50) In vivo.

Take `Cn1cc([N+](=O)[O-])nc1[S+](C)[O-]` (stereo not drawn) [Compound 6, 1-methyl-2-methylsulfinyl-4-nitroimidazole]: in data set [1], the IC50 turned out to be 14 µg/mL (≈ 74 µM). Moreover, in data set [2] (setting [6]), the ED50 lay in the range of 2 to 5 mg/kg.

With `CCn1cc([N+](=O)[O-])nc1S(C)(=O)=O` [Compound 1], the IC50 in data set [1] was 25 µg/mL (≈ 114 µM). The median effective dose (ED50) in data set [2] (setting [6]) fell in the range of 10 to 50 mg/kg.

In the case of `CCSc1nc([N+](=O)[O-])cn1C` [Compound 8, 1-methyl-2-ethylthio-4-nitroimidazole], the IC50 in data set [1] worked out at 2.3 µg/mL (≈ 12.3 µM). For the same compound, the entries for the “Relative Elution Slope” value in data set [3] (0.5 mM), in data set [3] (1.5 mM) and in data set [3] (5.0 mM) were 1.33, 1.23 and 1.60, respectively. Besides, in data set [3] (up to 5.0 mM), the “significant DNA strand breakage (in words)” value is “did not cause significant DNA strand”. The viability at 500 µM in data set [4] (0.5 mM) came out at 107%. In data set [4] (1.5 mM), the viability at 1500 µM was 105%. The viability at 5000 µM in data set [4] (5.0 mM) worked out at 102%. Moreover, the ED50 in data set [2] (setting [6]) and in data set [2] (setting [7]) was 2 mg/kg in each case. The mutants per plate result in data set [5] (3 μg per plate) is listed as “indistinguishable from background”; in data set [5] (30 μg per plate) it was “indistinguishable from background”; in data set [5] (100 μg per plate), 30 mutants per plate; in data set [5] (300 μg per plate) it was 65 mutants per plate. The “mutagenicity (conclusion in words)” value in data set [5] (Ames test) was “non-mutagenic”. Moreover, in data set [5] (Table II), the “In vivo Safety Index (rel to flagyl)” value is on record as above 1750. For the same compound, the Mutagenicity in data set [5] (setting [8]) is recorded as below 0.1 percent Ronidazole.

For `Cn1cc([N+](=O)[O-])nc1S(=O)(=O)c1ccccc1` [Compound 5, 1-methyl-2-phenylsulfonyl-4-nitroimidazole], the IC50 in data set [1] amounted to 17 µg/mL (≈ 63.6 µM). Further, the ED50 in data set [2] (setting [6]) and in data set [2] (setting [9]) was 10 to 25 mg/kg in each case. In addition, in data set [5] (Table III, Ames TA100 strain), the Mutagenicity came out at 0.1 percent ronidazole.

Turning to `CC(C)S(=O)(=O)c1nc([N+](=O)[O-])cn1C` [Compound 4, 1-methyl-2-isopropylsulfonyl-4-nitroimidazole], the IC50 in data set [1] worked out at 21 µg/mL (≈ 90 µM). The ED50 in data set [2] (setting [6]) and in data set [2] (setting [9]) was 5 to 10 mg/kg throughout. Also, in data set [5] (Table III, Ames TA100 strain), the Mutagenicity is on record as 0.1 percent ronidazole.

`CC(C)Sc1nc([N+](=O)[O-])cn1C` [Compound 10, 1-methyl-2-isopropylthio-4-nitroimidazole]: the IC50 in data set [1] is 4 µg/mL (≈ 19.9 µM). Also, in data set [2] (setting [6]), the ED50 fell in the range of 10 to 50 mg/kg.

For `CCCS(=O)(=O)c1nc([N+](=O)[O-])cn1C` [Compound 3, 1-methyl-2-propylsulfonyl-4-nitroimidazole], the IC50 in data set [1] was 27 µg/mL (≈ 116 µM). Further, the ED50 in data set [2] (setting [6]) and in data set [2] (setting [9]) was 5 to 10 mg/kg in each case. The Mutagenicity in data set [5] (Table III, Ames TA100 strain) was 0.1 percent ronidazole.

For the compound `CCS(=O)(=O)c1nc([N+](=O)[O-])cn1C` [Compound 2, 1-methyl-2-ethylsulfonyl-4-nitroimidazole], the IC50 in data set [1] came out at 18.5 µg/mL (≈ 84.4 µM). The ED50 in data set [2] (setting [6]) and in data set [2] (setting [9]) was 2 to 5 mg/kg throughout. The compound further came in with a Mutagenicity in data set [5] (Table III, Ames TA100 strain) of 0.1 percent ronidazole.

Take `CCCSc1nc([N+](=O)[O-])cn1C` [Compound 9, 1-methyl-2-propylthio-4-nitroimidazole]: the IC50 in data set [1] turned out to be 4 µg/mL (≈ 19.9 µM). The ED50 in data set [2] (setting [6]) worked out at 5 mg/kg.

Consider `Cc1ncc([N+](=O)[O-])n1CCO` [Flagyl, 1-(2-hydroxyethyl)-2-methyl-5-nitro-imidazole, reference compound], for which the IC50 in data set [1] amounted to 0.4 µg/mL (≈ 2.34 µM). In addition, in data set [3] (at both 3.0 and 10.0 mM), the “DNA strand breaks (in words)” value was “caused breaks”. Also, in data set [4] (3.0 mM), the viability at 3000 µM was 107%. Further, the viability at 10000 µM in data set [4] (10.0 mM) came to 101%. Besides, the ED50 in data set [2] (setting [6]) was 25 to 50 mg/kg; in data set [2] (setting [7]), 50 mg/kg; in data set [2] (setting [9]), 25 to 50 mg/kg.

With `CSc1nc([N+](=O)[O-])cn1C` [Compound 7, 1-methyl-2-methylthio-4-nitroimidazole], the IC50 in data set [1] turned out to be 2.1 µg/mL (≈ 12.1 µM). The ED50 in data set [2] (setting [6]) was in the range of 5 to 10 mg/kg.

For the compound `Cn1c([N+](=O)[O-])cnc1COC(N)=O` [Ronidazole, 1-methyl-2-[(carbamoyloxy)methyl]-5-nitroimidazole, reference compound], the ED50 in data set [2] (setting [7]) was 2 to 5 mg/kg; in data set [2] (setting [9]), 5 to 10 mg/kg. Besides, the mutants per plate in data set [5] (3 μg per plate) is given as 358 mutants per plate; in data set [5] (30 μg per plate) it was 2682 mutants per plate. For the same compound, the “In vivo Safety Index (rel to flagyl)” value in data set [5] (Table II) came out at 0.7. The Mutagenicity in data set [5] (setting [8]) is 100 percent Ronidazole; in data set [5] (Table III, Ames TA100 strain) it was 100.0 percent ronidazole.
